Assays:
[1] = Apparent pKa of ionizable lipid in LNP by TNS fluorescence; details: pH 3, probe TNS (2-(p-toluidino)-6-naphthalene sulfonic acid)
Experimental: (§1) Using 1 M sodium hydroxide and 1 M hydrochloric acid, ˜20 unique buffers from the master buffer stock are prepared at different pH values between about 3 and 12. 300 mM 6-(p-Toluidino)-2-naphthalenesulfonic acid sodium salt (TNS reagent) solubilized in dimethyl sulfoxide (DMSO) is used as a stock. LNP are prepared and purified into the desired pH buffer with a final mRNA concentration of 0.04 mg/mL. Using a 96-well plate, preloaded with desired buffers, mRNA containing LNP are added to so that the final concentration of mRNA is 0.7 μg/mL. To each well, TNS is added so that the DMSO concentration is 1% (v/v). After mixing, the fluorescence of TNS in each well is measured (Ex/Em 331 nm/445 nm) and a sigmoidal best fit analysis is applied to the fluorescence data. The pKa is determined as the pH giving rise to half-maximal fluorescence intensity.

physchem = details: pH 3
Experimental: as §1

[2] = Accelerated oxidation of ICLs with H2O2/Fe(III)Cl, UHPLC-CAD; type: physicochemical; details: for % of parent lipid peak at time 0, 24 h / % of parent lipid peak at time 0, 48 h / % of parent lipid peak at time 0, 72 h: Table 14, ICL lipid suspensions, 1% H2O2/100 μM Fe(III)Cl, 37° C.; for degradation: after 48 hours of incubation with hydrogen peroxide
Experimental: Individual lipid stocks (10 mM) were prepared in ethanol and stored at −20° C. […] Liposomal formulations based on AKG-UO-1 and O-11769 ionizable cationic lipids (Table 12) were prepared by combining lipid mixtures of desired composition in 1 mL ethanol with 3 mL 6.25 mM sodium acetate, pH 5.0 at 6 mL/min on a NanoAssemblr (Precision Nanosystems). 3.6 mL of the mixture was retained, while the initial 0.35 mL of the mixture and final 0.05 mL were discarded. Ethanol was removed by buffer exchange into PBS, pH 7.4 by concentrating each liposome preparation using an Aminon-Ultra 4 centrifugal concentrator at 500 g for 10 min at 4° C. and diluting back to the original volume with PBS. This cycle was repeated multiple times until the ethanol concentration was <1%. Finally, liposomes were sterile filtered through 0.2 μm PES (Nalgene) syringe filters and size measured by a ZetaSizer (Malvern).
Aliquots of the liposomal formulations were stored at −80° C. and thawed before the experiment. A combined stock in water of 10% H2O2 (Sigma-Aldrich, cat #H1009) and 1 mM of Fe(III)Cl (Sigma-Aldrich, cat #372870) was freshly prepared prior to the treatment. To make 1% final concentration of H2O2 and 100 μM Fe(III)Cl, 10 μl of 10% H2O2/1 mM Fe(III)Cl stock was added to 90 μl of both liposomal formulations and individual lipids The liposomes and individual lipids were incubated with H2O2/Fe(III)Cl at 37° C. and then 5 μl from each sample was taken at different time points (0, 3, 24, 48 and 72 hours) and dissolved in 90 μl of MeOH for HPLC analysis. Degradation of the main lipid peak was analyzed using Thermo Scientific Vanquish Flex UHPLC occupied with Charged Aerosol Detector (CAD) and Thermo Scientific Accucore™ C18+ UHPLC column (L=50 mm, D=2.1 mm, Particle Size=1.5 μm).
The data are presented as a percentage of the main lipid peak measured at different time points relative to the lipid peak measured at time zero.

Row | SMILES | pKa [1] | also measured
1 | CCCCC/C=C\CCCC/C=C\CCCCCC1(CCCCC/C=C\CCCC/C=C\CCCCC)OCC(CCN(C)C)O1 (stereo not drawn) [Compound 1] | 6 to 7 | 
2 | CC/C=C\CCCC/C=C\CCCCCCCCC1(CCCCCCCC/C=C\CCCC/C=C\CC)OCC(CCN(C)C)O1 (stereo not drawn) [Compound 2] | 6 to 7 | 
3 | CCCCC/C=C\CCCC/C=C\CCCCCC1(CCCCC/C=C\CCCC/C=C\CCCCC)OCC(CCCN(C)C)O1 (stereo not drawn) [Compound 3] | 6 to 7 | 
4 | CCCCCC/C=C\CCCCCCCCC1(CCCCCCCC/C=C\CCCCCC)OCC(CCN(C)C)O1 (stereo not drawn) [Compound 4] | 6 to 7 | 
5 | CCC/C=C\CCCC/C=C\CCCCCC1(CCCCC/C=C\CCCC/C=C\CCC)OCC(CCN(C)C)O1 (stereo not drawn) [Compound 5] | 6 to 7 | 
6 | CCCCC/C=C\CCCC/C=C\CCCCCC1(CCCCC/C=C\CCCC/C=C\CCCCC)OCC(CCN(CC)CC)O1 (stereo not drawn) [Compound 6] | 6 to 7 | 
7 | CCC/C=C\CCCC/C=C\CCCCCC1(CCCCC/C=C\CCCC/C=C\CCC)OCC(CCN(CC)CC)O1 (stereo not drawn) [Compound 7] | 6 to 7 | 
8 | CCC/C=C\CCCC/C=C\CCCCCC1(CCCCC/C=C\CCCC/C=C\CCC)OCC(CCCN(C)C)O1 (stereo not drawn) [Compound 8] | 6 to 7 | 
9 | CCCCC/C=C\CCCC/C=C\CCCCCC(CCCCC/C=C\CCCC/C=C\CCCCC)OC(=O)CCCN(C)C [Compound 9] | 6 to 7 | 
10 | CC/C=C\CCCC/C=C\CCCCCCCCC(CCCCCCCC/C=C\CCCC/C=C\CC)OC(=O)CCCN(C)C [Compound 10] | 6 to 7 | 
11 | CCCCC/C=C\CCCC/C=C\CCCCCC(CCCCC/C=C\CCCC/C=C\CCCCC)OC(=O)CCCN(CC)CC [Compound 11] | 6 to 7 | 
12 | CCCCC/C=C\CCCC/C=C\CCCCCC(CCCCC/C=C\CCCC/C=C\CCCCC)OC(=O)CCCCN(C)C [Compound 12] | 6 to 7 | 
13 | CCCCCC/C=C\CCCCCCCCC(CCCCCCCC/C=C\CCCCCC)OC(=O)CCCN(C)C [Compound 13] | 6 to 7 | 
14 | CCC/C=C\CCCC/C=C\CCCCCC(CCCCC/C=C\CCCC/C=C\CCC)OC(=O)CCCN(C)C [Compound 14] | 6 to 7 | 
15 | CCC/C=C\CCCC/C=C\CCCCCC(CCCCC/C=C\CCCC/C=C\CCC)OC(=O)CCCCN(C)C [Compound 15] | 6 to 7 | 
16 | CCC/C=C\CCCC/C=C\CCCCCC(CCCCC/C=C\CCCC/C=C\CCC)OC(=O)CCCN(CC)CC [Compound 16] | 6 to 7 | 
17 | CC/C=C\CCCC/C=C\CCCCCCCC(=O)OC[C@H](CCN(C)C)OC(=O)CCCCCCC/C=C\CCCC/C=C\CC [Compound 17] | 6 to 7 | 
18 | CC/C=C\CCCC/C=C\CCCCCCCC(=O)OC[C@H](CCCN(C)C)OC(=O)CCCCCCC/C=C\CCCC/C=C\CC [Compound 18] | 6 to 7 | 
19 | CC/C=C\CCCC/C=C\CCCCCCCC(=O)OC[C@H](CCN(CC)CC)OC(=O)CCCCCCC/C=C\CCCC/C=C\CC [Compound 19] | 6 to 7 | 
20 | CC/C=C\CCCC/C=C\CCCCCCCC(=O)OC[C@H](COP(=O)(OC)OCCCN(C)C)OC(=O)CCCCCCC/C=C\CCCC/C=C\CC (stereo partly drawn) [Compound 20] | 6 to 7 | 
21 | CC/C=C\CCCC/C=C\CCCCCCCC(=O)OC[C@H](COP(=O)(OC)OCCCN(CC)CC)OC(=O)CCCCCCC/C=C\CCCC/C=C\CC (stereo partly drawn) [Compound 21] | 6 to 7 | 

Row | SMILES | pKa [1] | also measured
22 | CC/C=C\CCCC/C=C\CCCCCCCC(=O)OC[C@H](COP(=O)(OC)OCCCCN(C)C)OC(=O)CCCCCCC/C=C\CCCC/C=C\CC (stereo partly drawn) [Compound 22] | 6 to 7 | 
23 | CCC/C=C\CCCC/C=C\CCCCC(=O)OC[C@H](CCN(C)C)OC(=O)CCCC/C=C\CCCC/C=C\CCC [Compound 23] | 6 to 7 | 
24 | CCC/C=C\CCCC/C=C\CCCCC(=O)OC[C@H](CCN(CC)CC)OC(=O)CCCC/C=C\CCCC/C=C\CCC [Compound 24] | 6 to 7 | 
25 | CCC/C=C\CCCC/C=C\CCCCC(=O)OC[C@H](CCCN(C)C)OC(=O)CCCC/C=C\CCCC/C=C\CCC [Compound 25] | 6 to 7 | 
26 | CCC/C=C\CCCC/C=C\CCCCC(=O)OC[C@H](COP(=O)(OC)OCCCN(C)C)OC(=O)CCCC/C=C\CCCC/C=C\CCC (stereo partly drawn) [Compound 26] | 6 to 7 | 
27 | CCC/C=C\CCCC/C=C\CCCCC(=O)OC[C@H](COP(=O)(OC)OCCCN(CC)CC)OC(=O)CCCC/C=C\CCCC/C=C\CCC (stereo partly drawn) [Compound 27] | 6 to 7 | 
28 | CCC/C=C\CCCC/C=C\CCCCC(=O)OC[C@H](COP(=O)(OC)OCCCCN(C)C)OC(=O)CCCC/C=C\CCCC/C=C\CCC (stereo partly drawn) [Compound 28] | 6 to 7 | 
29 | CCCCCCCC/C=C\CCSSCCCCC1(CCCCSSCC/C=C\CCCCCCCC)OCC(CCN(C)C)O1 (stereo not drawn) [Compound 29] | 6 to 7 | 
30 | CCCCCC/C=C\CCSSCCCCC1(CCCCSSCC/C=C\CCCCCC)OCC(CCN(C)C)O1 (stereo not drawn) [Compound 30] | 6 to 7 | 
31 | CCCCCCCC/C=C\CCSSCCCCC(CCCCSSCC/C=C\CCCCCCCC)OC(=O)CCCN(C)C [Compound 31] | 6 to 7 | 
32 | CCCCCC/C=C\CCSSCCCCC(CCCCSSCC/C=C\CCCCCC)OC(=O)CCCN(C)C [Compound 32] | 6 to 7 | 
33 | CCCCCCCC/C=C\CCSSCCCC(=O)OC[C@H](CCN(C)C)OC(=O)CCCSSCC/C=C\CCCCCCCC [Compound 33] | 6 to 7 | 
34 | CCCCCC/C=C\CCSSCCCC(=O)OC[C@H](CCN(C)C)OC(=O)CCCSSCC/C=C\CCCCCC [Compound 34] | 6 to 7 | 
35 | CC(C)CCC[C@@H](C)[C@H]1CCC2[C@@H]3CC=C4CC(SSCCCN(C)C)CC[C@]4(C)[C@H]3CC[C@@]21C (stereo partly drawn) [Compound 35] |  | pKa (physchem): 6 to 7
36 | CC(C)CCC[C@@H](C)[C@H]1CCC2[C@@H]3CC=C4CC(SSCCCCN(C)C)CC[C@]4(C)[C@H]3CC[C@@]21C (stereo partly drawn) [Compound 36] |  | pKa (physchem): 6 to 7
37 | CCCCC/C=C\C/C=C\CCCCCCCC(=O)OC[C@H](CCN(C)C)OC(=O)CCCCCCC/C=C\C/C=C\CCCCC [Compound O-11769] |  | % of parent lipid peak at time 0, 24 h [2]: 31 ± 0.9%; % of parent lipid peak at time 0, 48 h [2]: 1 ± 0.2%; % of parent lipid peak at time 0, 72 h [2]: 0.3 ± 0.1%; degradation [2]: fully degraded
38 | CCCCC/C=C\C/C=C\CCCCCCCCC1(CCCCCCCC/C=C\C/C=C\CCCCC)OCC(CCN(C)C)O1 (stereo not drawn) [KC2, DLin-KC2-DMA] |  | % of parent lipid peak at time 0, 24 h [2]: 35 ± 0.7%; % of parent lipid peak at time 0, 48 h [2]: 6 ± 1.9%; % of parent lipid peak at time 0, 72 h [2]: 0 ± 0.0%; degradation [2]: fully degraded
39 | CCCCC/C=C\CCCC/C=C\CCCCCC1(CCCCC/C=C\CCCC/C=C\CCCCC)OC[C@H](CCN(C)C)O1 [KC2-01, 2-((S)-2,2-di((6Z,12Z)-octadeca-6,12-dien-1-yl)-1,3-dioxolan-4-yl)-N,N-dimethylethan-1-amine] |  | % of parent lipid peak at time 0, 24 h [2]: 91 ± 0.3%; % of parent lipid peak at time 0, 48 h [2]: 87 ± 0.9%; % of parent lipid peak at time 0, 72 h [2]: 83 ± 0.3%
40 | CCCCC/C=C\C/C=C\CCCCCCCCC1(CCCCCCCC/C=C\C/C=C\CCCCC)OCC(CCCN(C)C)O1 (stereo not drawn) [KC3, Dlin-KC3-DMA] |  | % of parent lipid peak at time 0, 24 h [2]: 46 ± 1.8%; % of parent lipid peak at time 0, 48 h [2]: 1 ± 0.2%; % of parent lipid peak at time 0, 72 h [2]: 0 ± 0.0%; degradation [2]: fully degraded
41 | CCCCC/C=C\CCCC/C=C\CCCCCC1(CCCCC/C=C\CCCC/C=C\CCCCC)OC[C@H](CCCN(C)C)O1 [KC3-01, 3-((S)-2,2-di((6Z,12Z)-octadeca-6,12-dien-1-yl)-1,3-dioxolan-4-yl)-N,N-dimethylpropan-1-amine] |  | % of parent lipid peak at time 0, 24 h [2]: 83 ± 4.3%; % of parent lipid peak at time 0, 48 h [2]: 80 ± 0.4%; % of parent lipid peak at time 0, 72 h [2]: 74 ± 2.2%
42 | CCCCC/C=C\CCCC/C=C\CCCCC(=O)OC[C@H](CCN(C)C)OC(=O)CCCC/C=C\CCCC/C=C\CCCCC [UO-1] |  | % of parent lipid peak at time 0, 24 h [2]: 78 ± 0.6%; % of parent lipid peak at time 0, 48 h [2]: 74 ± 0.1%; % of parent lipid peak at time 0, 72 h [2]: 65 ± 2.5%
